Here are results for three compounds from PMC12155980, “Design, Synthesis, and Biological Evaluations of a Novel Resveratrol-Type Analogue Against VEGF” (Molecules, 2025).

The Kd is the constant that tells how readily two partners part at equilibrium. The Papp is the rate of passage across a membrane or cell layer, normalised by area and donor concentration. A lower Papp goes with poor permeation.

In series [1] the test system is HaCaT cells. The series is described as follows: MTT cell viability (toxicity) in HaCaT cells. It is filed as cell-based, human. The settings on record: concentrations up to 100 µM.
Series [2] can be described thus: Stability test by HPLC (intra- and inter-day variability). The settings on record: for Intra-day RSD: n = 6; for Intra-day Mean Peak Area: n = 6, HPLC 210 nm; for Inter-day Mean Peak Area / Inter-day RSD: n = 6, five successive days. The format is physicochemical.
Another series deals with VEGF/VEGFR2 complex. Kind of series: Western blot, phosphorylation of VEGF/VEGFR2 in HUVECs. The format is cell-based, human. The conditions noted are these: VEGF 10 ng/mL. The protocol: (§1) In light of the investigation above, we further evaluated the anti-VEGF efficacy of RE-1 in cell studies. VEGFR2 was previously identified as the main receptor of VEGF protein. […] ERK1/2, a downstream signal factor, was subsequently stimulated and phosphorylated after the activation of VEGFR2 [17].
(A) VEGF was added at a concentration of 10 ng/mL, and avastin at 200 µg/mL was employed as the positive control. (B) The intensities of each band were quantified and analyzed with software Image Lab (6.1 version). Values were calculated as the percentage of changes compared with blank control (only medium), in mean ± SD, n = 4. * p < 0.05; compared with the control group.
(§2) HUVECs were seeded onto 12-well plates at a density of 1.5 × 10^4 cells/mL and subjected to serum starvation with a serum-free medium overnight. After treatment with various samples, the cells were directly lysed with 200 μL 2× sodium dodecyl sulfate polyacrylamide gel electrophoresis (SDS-PAGE) lysis buffer (100 mM Tris-Cl, pH 6.8, 8% SDS, 0.2% bromophenol blue, 20% glycerol, 400 mM β-mercaptoethanol). The lysates were obtained and denatured at 85 °C for 15 min. Afterwards, the samples were subjected to SDS-PAGE in a 10% gel. Then, 5% skim milk in Tris-buffered saline of pH 7.4 with 0.1% Tween-20 (as TBST) was used for blocking. […] The intensities of each band were quantified and analyzed with software Image Lab.
A general note: In western blotting, separated proteins are transferred to a membrane and probed.

Series [3] deals with HUVECs. The series is described as follows: Wound closure assay. The format is cell-based, human. The settings on record: VEGF 10 ng/mL, 0.3 µM to 3 µM, 20 h. The protocol: (§3) VEGF has been reported as a crucial mediator in human umbilical vein endothelial cells (HUVECs).
Figure 6 RE-1 reduces VEGF-regulated wound recovery in HUVECs. […] (D) Quantification of wound recovery. Values were calculated as percentage of changes compared with the blank control (only medium), in mean ± SD, n = 4. * p < 0.05; ** p < 0.01; compared with the control group.
A wound closure assay was performed on cultured HUVECs to study cell migration in vitro. Procedures were described previously by Guo et al.. Briefly, HUVECs were seeded onto a 12-well plate at a density of 3 × 10^5 cells/well, and treatments were added when the cells grew to full confluence. The cells were washed with PBS and treated with drugs. The photos of each cell scrape at 0 (At0) and 20 h (At20) were captured with a microscope and imaging software (Zen, https://www.zeiss.com/microscopy/en/products/software/zeiss-zen.html, accessed on 19 January 2025) at a 10× magnification. The software TScratch 1.0 (CSE Lab, Zurich, Switzerland) was used to determine the open area of each scrape photo at various timepoints. Quantification of the recovery rate of wound was calculated according to the following equation: Wound closure (%) = (At0 − At20)/[…] × 100%.

The next series addresses T1, VEGF protein (Homo sapiens, UniProt P15692).
T1 sequence (P15692 1-191 isoform P15692-4): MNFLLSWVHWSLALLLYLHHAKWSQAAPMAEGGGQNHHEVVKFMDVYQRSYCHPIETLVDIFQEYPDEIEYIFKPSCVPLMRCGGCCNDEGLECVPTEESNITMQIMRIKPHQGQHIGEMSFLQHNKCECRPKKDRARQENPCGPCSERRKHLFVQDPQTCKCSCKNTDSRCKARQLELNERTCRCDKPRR
The series is described as follows: Ultrafiltration binding assay with HPLC quantification. The settings on record: ultrafiltration in presence and absence of VEGF protein.

Series [4] deals with HUVECs. Kind of series: VEGF-induced cell proliferation (MTT). It is filed as cell-based, human. The conditions noted are these: VEGF 10 ng/mL, 48 h, 0.1-10 µM. The protocol:
as §3
HUVECs were incubated in the presence of VEGF (10 ng/mL) with or without drug treatments for 48 h. […] The absorbance of the samples at 570 nm was measured using a microplate reader (Thermo Fisher Scientific, Waltham, MA, USA). * p < 0.05; ** p < 0.01; compared with the control group.
First, 5 × 10^4 cells/mL […] cells were seeded on a 96-well plate. After 24 h incubation, 100 μL VEGF at a concentration of 10 ng/mL with various concentrations of analytes were added to the mixture, followed by the addition of 10 μL of MTT solution (5 mg/mL). Th blank group was set up without any drug treatments, while avastin was utilized as a positive control. The mixture was incubated at 37 °C for 4 h before 150 μL DMSO was employed to dissolve formazan salt formed during the reaction. The sample was collected and read under a microplate reader (Thermo Fisher Scientific) at a wavelength of 570 nm. Proliferation values were calculated as follows: cell proliferation (%) = (experimental value − background value)/(blank value − background value) × 100%.

For series [5], the system named is HaCaT cells. Kind of series: VEGF-mediated intracellular ROS formation (DCFH-DA). The format is cell-based, human. The settings on record: 0.3 to 3 µM. The protocol: VEGF acts as an inducer in reactive oxygen species (ROS) formation; such an interaction plays an essential role in the activation of VEGFR2-mediated pathways and downstream cell migration.
Figure 7 RE-1 attenuates VEGF-mediated ROS formation in HaCaT cells. (A) HaCaT cells were seeded onto coverslips and mounted with Prolong Gold Antifade Reagent with DAPI. Pictures of cells were captured with confocal microscopy Leica SP8 (Leica, Germany). (B) The intensities of fluorescent signals by DCFH-DA were quantified using the software Leica Application Suite (LAS, 4.12 version) X. Values were calculated as percentage of changes compared with the blank control (only medium), in mean ± SD, n = 4. * p < 0.05; compared with the control group.
Intracellular ROS accumulation was measured with a fluorescent ROS indicator DCFH-DA. Procedures were conducted as described previously. In brief, HaCaT cells were seeded onto coverslips at a density of 1 × 10^5 cells/mL. Following drug treatments, a DCFH-DA probe diluted in serum-free medium at 20 μM was introduced to the cells. The cells were incubated with DCFH-DA for 20 min in a 37 °C incubator. PBS wash was followed to rinse off the residual DCFH-DA. Following this, the cells were fixed with 4% paraformaldehyde (PFA) in PBS for 15 min at room temperature. The PFA was washed off with a PBS wash twice. Coverslips with fixed cells were mounted with Prolong Gold Antifade Reagent with DAPI (Cell Signalling Technology, Boston, MA, USA). Pictures of cells were captured with confocal microscopy Leica SP8 system at 20× magnification (Leica, Wetzlar, Germany). The intensities of fluorescent signals by DCFH-DA were determined through the software Leica Application Suite (LAS) X (Leica Microsystems, Wetzlar, Germany).

Series [6] deals with HUVECs. Kind of series: MTT cell viability (toxicity) in HUVECs. The settings on record: cultured HUVECs, concentrations up to 100 µM. It is filed as cell-based, human.
Another series concerns the target T2, VEGF165 protein (Homo sapiens, UniProt P15692).
T2 sequence (P15692 1-191 isoform P15692-4): T1 sequence (P15692 1-191 isoform P15692-4)
Kind of series: SPR binding affinity assay (Biacore T200). The conditions noted are these: immobilized VEGF165, analytes 1 to 30 µM, estimated, read-out: dissociation constant (Kd). How it is done:
In parallel, an ultrafiltration assay was conducted in the presence and absence of VEGF protein (Figure 2A). […] Subsequently, SPR investigation was performed using Biacore T200 (Cytiva, Washington, DC, USA) to detect the binding affinities of RE-1 to the targeted protein. […] When the binding activities between analytes and the protein were detected, response units (RUs) could be calculated and obtained accordingly.
Binding affinities between analytes and VEGF protein were determined using a Biacore T200 (Cytiva, Washington, DC, USA) with a GE Series dextran-coated (CM5) sensor chip. Specifically, the HBS-T mixture (150 mM NaCl, 10 mM Hepes, 0.05% polysorbate 20, 3.4 mM EDTA, 5% DMSO, pH 7.4) was selected as the operating buffer at 25 °C. The immobilizing VEGF protein was covalently placed onto the chip at the sensor surface through amide coupling reagent—EDC/NHS {1-ethyl-3-[3-(dimethylamino) propyl]carbodiimide hydrochloride)/N-hydroxysuccinimide}. Following surface activation, the VEGF protein was dissolved using a coupling buffer (0.1 M acetate buffer, pH 4.5) and placed at the surface of the sensor chip, until the RU (resonance unit) signal of the VEGF protein was detected and reached 6500 RU. To remove unreacted VEGF protein, the chip was washed and subsequently reacted with 10 mM glycine-HCl at pH 1.5. […] Data were further analyzed utilizing GE Biacore T200 control software.

A short description of series [7]: Caco-2 transepithelial permeability assay. The format is in vitro ADME. The conditions noted are these: human; for Papp at 0.3 µM: Caco-2, sample tested at 0.3 µM; for Papp at 3 µM: Caco-2, sample tested at 3 µM.
The subject of the next series is ERK1/2. The series is described as follows: Western blot, phosphorylation of downstream ERK1/2 in HUVECs. The format is cell-based, human. The conditions noted are these: in the presence of VEGF.
From the text: as §1
(A) Cell treatment was the same as in Figure 3. […] Antibodies in use included: anti-rabbit phospho-p44/42 MAPK, anti-rabbit p44/42 MAPK (CST), and anti-rabbit horseradish peroxidase (HRP) secondary antibody. (B) The intensities of each band were quantified and analyzed with the software Image Lab. Values were calculated as percentage of changes compared with a blank control (only medium), in mean ± SD, n = 4. * p < 0.05; compared with the control group.
as §2, with “gel.” for “gel. Then, 5% skim milk in Tris-buffered saline of pH 7.4 with 0.1% Tween-20 (as TBST) was used for blocking.”

For the compound `COc1cc(/C=C/c2ccc(OCCCn3c4c(c5cc(Br)ccc53)CCCC4n3cccc3)cc2)cc(OC)c1` (centres unmarked) [RE-1], the “toxicity (apoptosis) in MTT assay” value with HaCaT cells [1] is “no significant apoptosis”. For the same compound, in series [2] (acidic solution), the “Intra-day RSD” value is 5.84%, the “Intra-day Mean Peak Area” value was determined as 1316.9, the “Inter-day Mean Peak Area” value came to 1403.9 and the “Inter-day RSD” value is 8.83%. In addition, in [2] (basic solution), the “Intra-day RSD” value is listed as 5.81%, the “Intra-day Mean Peak Area” value is on record as 755.8, the “Inter-day Mean Peak Area” value is 747.2 and the “Inter-day RSD” value amounted to 9.35%. For the same compound, in [2] (neutral solution), the “Intra-day RSD” value came out at 4.93%, the “Intra-day Mean Peak Area” value is on record as 1002.8, the “Inter-day Mean Peak Area” value is on record as 1046.6 and the “Inter-day RSD” value came to 9.21%. Moreover, the “disruption of phosphorylation of VEGF/VEGFR2” value with VEGF/VEGFR2 complex was “able to disrupt the phosphorylation and binding activity of VEGF/VEGFR2 complex”. For the same compound, in the series with HUVECs [3], the “inhibition of VEGF-regulated wound closure” value is “higher efficacy than resveratrol”. The “binding degree to the protein” value on VEGF protein is reported as ~ 32%. Besides, the “inhibition of VEGF-regulated cell proliferation” value in the series on HUVECs [4] is “significant inhibitory activity”. In the series on HaCaT cells [5], the “inhibition of VEGF-mediated ROS formation” value is reported as “better inhibitory performances than resveratrol”. In addition, the “toxicity (apoptosis) in MTT assay” value with HUVECs [6] is “no significant apoptosis”. Also, on VEGF165 protein, the Kd was approximately 8 µM. In series [7] (Caco-2, concentrations from 0.3 µM to 3 µM), this compound gave a Papp of 15.8 to 20.9 ×10⁻⁶ cm/s. Further, in series [7], the Papp at 0.3 µM stood at 15.8 ×10⁻⁶ cm/s and the Papp at 3 µM turned out to be 20.9 ×10⁻⁶ cm/s. In addition, the “inhibition of ERK1/2 phosphorylation” value with ERK1/2 is “found to block ERK1/2 phosphorylation”.

In the case of `Oc1ccc(/C=C/c2cc(O)cc(O)c2)cc1` [resveratrol], the “toxicity (apoptosis) in MTT assay” value in the series with HaCaT cells [1] and in the series with HUVECs [6] was “mild apoptosis at relatively high concentrations” each time. Also, the “disruption of phosphorylation of VEGF/VEGFR2” value in the series on VEGF/VEGFR2 complex is “able to disrupt the phosphorylation and binding activity of VEGF/VEGFR2 complex”. In addition, the “inhibition of VEGF-regulated wound closure” value with HUVECs [3] is on record as “significant inhibitions to wound closure”. The “inhibition of VEGF-regulated cell proliferation” value in the series with HUVECs [4] was “decent inhibition”. In the series on HaCaT cells [5], the “inhibition of VEGF-mediated ROS formation” value was “inhibitory effectiveness”. Further, at VEGF165 protein, the Kd is approximately 12 µM. Further, the Papp at 0.3 µM in series [7] is 15.1 ×10⁻⁶ cm/s. In series [7], this compound came in with a Papp at 3 µM of 18.2 ×10⁻⁶ cm/s. The “inhibition of ERK1/2 phosphorylation” value in the series with ERK1/2 is listed as “found to block ERK1/2 phosphorylation”.

“avastin: avastin (bevacizumab), positive control against VEGF”: the “inhibition of VEGF-mediated ROS formation” value in the series with HaCaT cells [5] is “able to reduce such an induction”.
